Patent US12644203B2, “Cellular phenotype screening method” (ThinkCyte, Inc., priority 2020, dated 2026)

Key:
Assay type in all cases: cell-based
[1] = system: nuclear localization of NF-κB induced by LPS in THP1 cells; test: Cellular phenotype screening in a 96-well microplate: imaging cell sorter sorting, then enrichment of first barcode nucleic acid sequences; details: sorted for absence of NF-κB nuclear localization under LPS stimulation; value above 1 = more concentrated than before sorting; TAK242 at 30 μM; FIG. 21
Protocol: In accordance with the schematic diagram illustrated in FIG. 18, a search was carried out for test targets which cause a desired phenotypic change (in the example of FIG. 18, test substances which inhibit nuclear localization of NF-κB induced by LPS).
Specifically, in each well of a 96-well microplate, the first barcode nucleic acids were attached to cells (THP1 cells) according to the method described in Reference Example 1 and further brought into contact with test substances. At this time, different types and concentrations of the test substance and different types of the first barcode nucleic acids were used in each well. Due to this, 96 types of test targets (24 types of test substances×4 types of concentrations) were associated with 96 types of first barcode nucleic acids which are attached to the cells (THP1 cells). […]
Next, in the same manner as the examples described above, a single cell analysis was performed on the cell mixture solution sorted and recovered by the imaging cell sorter. Specifically, when reading out the DNA barcodes modifying each cell and cell-derived genetic information, the Chromium Controller apparatus and the Single Cell 3′ Reagent Kit v3 manufactured by 10× Genomics, which is a single cell analysis technology using a droplet technique as in Example 5 and Example 6, were used. […]

[2] = system: nuclear localization of NF-κB in THP1 cells; test: Nuclear localization score of sorted cells by image flow cytometry; details: cells treated with LPS and test substance (TAK242 30 μM); higher value indicates higher degree of nuclear localization; FIG. 22
Protocol: The photographic images of the cells were captured by an image flow cytometry and the nuclear localization scores were also calculated by the imaging flow cytometry. Regarding the nuclear localization scores, a higher value indicates a higher degree of nuclear localization.

[3] = system: NFκB protein nuclear localization in THP1 cells; test: NFκB protein localization by immunostaining and fluorescent light microscope in cells treated with the drug; details: LPS 2 μg/mL, 2 hours at 37 degrees, fluorescent light microscope, FIG. 7
Protocol: Next, cells collected by centrifugation in advance were added to the tube 1 and incubated. The cells used at this time were THP1 cells and the cell concentration was set to 1×10^7 cells/mL. The incubation was carried out for 5 minutes at room temperature.
Cells were resuspended in RPM1-1640 medium with 10% FBS and 50 μM 2-mercaptoethanol in the tube 1 and the tube 2, respectively. Next, as a drug, lipopolysaccharide (LPS) suspended in dimethyl sulfoxide (DMSO) was added to tube 1 only, at a final concentration of 2 μg/mL. In the tube 2, only DMSO, the solvent for the drug, was added. Next, the tube 1 and the tube 2 were incubated for 2 hours at 37 degrees in CO2, respectively. Through the experiment up to here, the drug condition whether the drug LPS is present or not, was respectively associated to each of the cells by corresponding each cell to the first barcode nucleic acid type A or the second barcode nucleic acid type B.
Next, some cells were collected from the tube 1 and the tube 2, respectively. […]

Molecule	enrichment level of the first barcode nucleic acid sequence of the sorted cells [1]	nuclear localization score [2]	localization of NFκB protein [3]
C=C1C(=O)O[C@@H]2/C=C(\C)CC/C=C(\C)CC[C@@H]12 [Costunolide]	significantly enriched	0.23	–
CCOC(=O)C1=CCCC[C@H]1S(=O)(=O)Nc1ccc(F)cc1Cl [TAK242]	approximately 1.5 fold	0.92	–
lipopolysaccharide [LPS]	–	0.30	almost all of the NFκB protein was localized in the nucleus
